According to patent US20250222146A1, “Radiopharmaceuticals Targeting Somatostatin Receptor 2 and Uses Thereof” (RayzeBio, Inc., priority 2023, published 2025):
Where two headings read alike, the source gives them in different places. Numbered stars: 1 amine (or outer) side, 2 acyl side, 3 side chain; on linkers, the order of the positions; unused ones are H or OH. Square brackets hold non-standard residues; d marks the D form. Side chains are listed from the residue outwards. Peptide text beside a SMILES is read from it. * marks the point of attachment. ξ: configuration not given here. DOTA(Lu)NH(CH2)6NHCOCH2 = O=C(CN1CCN2CCN3CCN(CC1)CC(=O)[O][Lu]([O]C(=O)C2)[O]C(=O)C3)NCCCCCCNC(=O)C*; DOTA(Lu) = O=C1CN2CCN3CCN(CC(=O)*)CCN(CC2)CC(=O)[O][Lu]([O]1)[O]C(=O)C3; Ala(piperidin-4-yl) = O=C([C@H](CC1CCN([*:3])CC1)N[*:1])[*:2]; DOTA = O=C(O)CN1CCN(CC(=O)O)CCN(CC(=O)*)CCN(CC(=O)O)CC1; dTrp(βS-Me) = C[C@@H](c1c[nH]c2ccccc12)[C@@H](N)C(=O)O; N(6-aminohexyl)Gly = O=C(CN(CCCCCCN[*:3])[*:1])[*:2]; Tyr(Ph) = N[C@@H](Cc1ccc(Oc2ccccc2)cc1)C(=O)O; NOTA = O=C(O)CN1CCN(CC(=O)O)CCN(CC(=O)*)CC1; X16 = NC1CCC(C[C@H](N[*:1])C(=O)[*:2])CC1; Dip = N[C@H](C(=O)O)C(c1ccccc1)c1ccccc1; Lys(5ξ-OH) = NCC(O)CC[C@H](N)C(=O)O; Ethylenediamine = C(CN[*:2])N[*:1]; Hyp = O=C(O)[C@@H]1C[C@@H](O)CN1; X13 = NCCCCN(N[*:1])C(=O)[*:2]; dPhg = N[C@@H](C(=O)O)c1ccccc1; NMehCys = CN[C@@H](CCS)C(=O)O; NMeK = CN[C@@H](CCCCN)C(=O)O; NMeDap = CN[C@@H](CN)C(=O)O; CO = O=C([*:1])[*:2]; Bn = c1ccc(C*)cc1; βAla = NCCC(=O)O

Molecular target: SSTR2 (Homo sapiens, UniProt P30874)
Test: SSTR binding affinity by radioligand binding competition assay ([125I]-Tyr11-Somatostatin, membrane extracts)
[1] = radioligand competition, [125I]-Tyr11-Somatostatin 0.1 nM, membrane extracts; Ki from IC50 by Cheng Prusoff; read-out: SSTR2 Ki
[2] = read-out: SSTR2 Ki; radioligand competition, [125I]-Tyr11-Somatostatin 0.1 nM, membrane extracts; Ki from IC50 by Cheng Prusoff

Chain of SSTR2 (P30874 whole entry): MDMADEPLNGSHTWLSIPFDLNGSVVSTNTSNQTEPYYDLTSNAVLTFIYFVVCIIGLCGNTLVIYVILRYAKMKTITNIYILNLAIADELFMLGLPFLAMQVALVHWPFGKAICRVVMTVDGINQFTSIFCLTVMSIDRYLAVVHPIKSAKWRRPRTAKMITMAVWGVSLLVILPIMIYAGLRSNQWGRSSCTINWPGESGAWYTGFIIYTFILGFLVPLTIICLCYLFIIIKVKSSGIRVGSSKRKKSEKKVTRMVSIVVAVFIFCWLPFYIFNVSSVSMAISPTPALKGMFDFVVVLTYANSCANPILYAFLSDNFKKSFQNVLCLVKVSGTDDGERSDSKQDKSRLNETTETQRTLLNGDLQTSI

Row | SMILES | Ki [1] [nM] | Ki [2] [nM]
1 | C[C@@H](O)[C@@H]1NC(=O)[C@H](CC2CCNCC2)NC(=O)[C@@H]([C@@H](C)c2c[nH]c3ccccc23)NC(=O)[C@H](Cc2ccc(O)cc2)NC(=O)[C@H](CNC(=O)[C@H](CCC(=O)O)NC(=O)CN2CCN3CCN4CCN(CC2)CC(=O)[O][Lu]([O]C(=O)C3)[O]C(=O)C4)N(C)C(=O)[C@H](Cc2ccccc2)NC1=O [RB-0006215] (cyclo(F[NMeDap]([Glu-DOTA(Lu)])Y[dTrp(βS-Me)][Ala(piperidin-4-yl)]T)) | 10 to 33.3 | 
2 | C[C@@H](O)[C@@H]1NC(=O)N(CCCCN)NC(=O)[C@@H](Cc2c[nH]c3ccccc23)NC(=O)[C@H](Cc2ccc(O)cc2)NC(=O)[C@H](CCCCNC(=O)CN2CCN3CCN4CCN(CC2)CC(=O)[O][Lu]([O]C(=O)C3)[O]C(=O)C4)N(C)C(=O)[C@H](Cc2ccccc2)NC1=O [RB-0006217] (cyclo(F[NMeK](DOTA(Lu))Y[dW][X13]T)) | < 1 | 
3 | C[C@@H](O)[C@@H]1NC(=O)[C@H](CC2CCNCC2)NC(=O)[C@@H]([C@@H](C)c2c[nH]c3ccccc23)NC(=O)[C@H](Cc2ccc(Oc3ccccc3)cc2)NC(=O)[C@H](CCCCNC(=O)CN2CCN3CCN4CCN(CC2)CC(=O)[O][Lu]([O]C(=O)C3)[O]C(=O)C4)N(C)C(=O)[C@H](Cc2ccccc2)NC1=O [RB-0006237] (cyclo(F[NMeK](DOTA(Lu))[Tyr(Ph)][dTrp(βS-Me)][Ala(piperidin-4-yl)]T)) | 3.33 to 10 | 
4 | C[C@@H](O)[C@@H]1NC(=O)[C@H](CC2CCNCC2)NC(=O)[C@@H]([C@@H](C)c2c[nH]c3ccccc23)NC(=O)[C@H](C(c2ccccc2)c2ccccc2)NC(=O)[C@H](CCCCNC(=O)CN2CCN3CCN4CCN(CC2)CC(=O)[O][Lu]([O]C(=O)C3)[O]C(=O)C4)N(C)C(=O)[C@H](Cc2ccccc2)NC1=O [RB-0006239] (cyclo([Dip][dTrp(βS-Me)][Ala(piperidin-4-yl)]TF[NMeK](DOTA(Lu)))) | 10 to 33.3 | 
5 | C[C@@H](O)[C@@H]1NC(=O)[C@H](CC2CCNCC2)NC(=O)[C@@H]([C@@H](C)c2c[nH]c3ccccc23)NC(=O)[C@H](Cc2ccc(O)cc2)NC(=O)[C@H](CCCCNC(=O)CN2CCN(CC(=O)O)CCN(CC(=O)O)CC2)N(C)C(=O)[C@H](Cc2ccccc2)NC1=O [RB-0006286] (cyclo([NMeK](NOTA)Y[dTrp(βS-Me)][Ala(piperidin-4-yl)]TF)) | 1 to 3.33 | 
6 | C[C@@H](O)[C@@H]1NC(=O)[C@H](CCC(O)CN)NC(=O)[C@@H](Cc2c[nH]c3ccccc23)NC(=O)[C@H](Cc2ccc(O)cc2)NC(=O)[C@H](CCSCC(=O)NCCCCCCNC(=O)CN2CCN3CCN4CCN(CC2)CC(=O)[O][Lu]([O]C(=O)C3)[O]C(=O)C4)N(C)C(=O)[C@H](Cc2ccccc2)NC1=O (stereo partly drawn) [RB-0006317] (cyclo(F[NMehCys](DOTA(Lu)NH(CH2)6NHCOCH2)Y[dW][Lys(5ξ-OH)]T)) | < 1 | 
7 | C[C@@H]1NC(=O)[C@H](CC2CCNCC2)NC(=O)[C@@H]([C@@H](C)c2c[nH]c3ccccc23)NC(=O)[C@H](Cc2ccc(O)cc2)NC(=O)[C@H](CCCCNC(=O)CN2CCN3CCN4CCN(CC2)CC(=O)[O][Lu]([O]C(=O)C3)[O]C(=O)C4)N(C)C(=O)[C@H](Cc2ccccc2)NC1=O [RB-0006319] (cyclo(AF[NMeK](DOTA(Lu))Y[dTrp(βS-Me)][Ala(piperidin-4-yl)])) | < 1 | 
8 | C[C@@H](O)[C@@H]1NC(=O)[C@H](CCC(O)CN)NC(=O)[C@H](Cc2c[nH]c3ccccc23)NC(=O)[C@H](Cc2ccc(O)cc2)NC(=O)[C@H](CCSCC(=O)NCCCCCCNC(=O)CN2CCN3CCN4CCN(CC2)CC(=O)[O][Lu]([O]C(=O)C3)[O]C(=O)C4)N(C)C(=O)[C@H](Cc2ccccc2)NC1=O (stereo partly drawn) [RB-0006385] (cyclo(F[NMehCys](DOTA(Lu)NH(CH2)6NHCOCH2)YW[Lys(5ξ-OH)]T)) | < 1 | 
9 | C[C@@H](O)[C@@H]1NC(=O)[C@H](CC2CCC(N)CC2)NC(=O)[C@@H]([C@@H](C)c2c[nH]c3ccccc23)NC(=O)[C@H](Cc2ccc(O)cc2)NC(=O)[C@H](CCCCNC(=O)CN2CCN3CCN4CCN(CC2)CC(=O)[O][Lu]([O]C(=O)C3)[O]C(=O)C4)N(C)C(=O)[C@H](Cc2ccccc2)NC1=O (stereo partly drawn) [RB-0006387] (cyclo(F[NMeK](DOTA(Lu))Y[dTrp(βS-Me)][X16]T)) | < 1 | 
10 | C[C@@H](O)[C@@H]1NC(=O)[C@H](CC2CCNCC2)NC(=O)[C@@H]([C@@H](C)c2c[nH]c3ccccc23)NC(=O)[C@H](Cc2ccc(O)cc2)NC(=O)CN(CCCCCCNC(=O)CN2CCN3CCN4CCN(CC2)CC(=O)[O][Lu]([O]C(=O)C3)[O]C(=O)C4)C(=O)[C@H](Cc2ccccc2)NC1=O [RB-0006389] (cyclo(F[N(6-aminohexyl)Gly](DOTA(Lu))Y[dTrp(βS-Me)][Ala(piperidin-4-yl)]T)) | < 1 | 
11 | C[C@@H](c1c[nH]c2ccccc12)[C@H]1NC(=O)[C@@H](c2ccccc2)NC(=O)[C@@H]2C[C@@H](OC(=O)NCCNC(=O)CN3CCN(CC(=O)O)CCN(CC(=O)O)CCN(CC(=O)O)CC3)CN2C(=O)[C@H](Cc2ccccc2)NC(=O)[C@H](Cc2ccc(OCc3ccccc3)cc2)NC(=O)[C@H](CC2CCNCC2)NC1=O [RB-0006391] (cyclo(F[Hyp]([CO-Ethylenediamine-DOTA])[dPhg][dTrp(βS-Me)][Ala(piperidin-4-yl)]Y(Bn))) |  | 33.3 to 100
12 | C[C@@H](c1c[nH]c2ccccc12)[C@H]1NC(=O)[C@H](Cc2ccc(O)cc2)NC(=O)[C@@H]2C[C@@H](OC(=O)NCCNC(=O)CN3CCN(CC(=O)O)CCN(CC(=O)O)CCN(CC(=O)O)CC3)CN2C(=O)[C@H](Cc2ccccc2)NC(=O)[C@H](Cc2ccc(OCc3ccccc3)cc2)NC(=O)[C@H](CC2CCNCC2)NC1=O [RB-0006393] (cyclo(F[Hyp]([CO-Ethylenediamine-DOTA])Y[dTrp(βS-Me)][Ala(piperidin-4-yl)]Y(Bn))) |  | < 1
13 | C[C@@H](O)[C@@H]1NC(=O)[C@H](CC2CCNCC2)NC(=O)[C@@H]([C@@H](C)c2c[nH]c3ccccc23)NC(=O)[C@H](Cc2ccc(O)cc2)NC(=O)[C@@H]2C[C@@H](OC(=O)NCCNC(=O)CN3CCN4CCN5CCN(CC3)CC(=O)[O][Lu]([O]C(=O)C4)[O]C(=O)C5)CN2C(=O)[C@H](Cc2ccccc2)NC1=O [RB-0006395] (cyclo(F[Hyp]([CO-Ethylenediamine-DOTA(Lu)])Y[dTrp(βS-Me)][Ala(piperidin-4-yl)]T)) | < 1 | 
14 | C[C@@H](O)[C@@H]1NC(=O)[C@H](CC2CCNCC2)NC(=O)[C@@H]([C@@H](C)c2c[nH]c3ccccc23)NC(=O)[C@H](Cc2ccc(O)cc2)NC(=O)[C@H](CCCCNC(=O)CNC(=O)CN2CCN3CCN4CCN(CC2)CC(=O)[O][Lu]([O]C(=O)C3)[O]C(=O)C4)N(C)C(=O)[C@H](Cc2ccccc2)NC1=O [RB-0006397] (cyclo(F[NMeK]([Gly-DOTA(Lu)])Y[dTrp(βS-Me)][Ala(piperidin-4-yl)]T)) | 1 to 3.33 | 
15 | C[C@@H](O)[C@@H]1NC(=O)[C@H](CC2CCNCC2)NC(=O)[C@@H]([C@@H](C)c2c[nH]c3ccccc23)NC(=O)[C@H](Cc2ccc(O)cc2)NC(=O)[C@H](CCCCNC(=O)CCNC(=O)CN2CCN3CCN4CCN(CC2)CC(=O)[O][Lu]([O]C(=O)C3)[O]C(=O)C4)N(C)C(=O)[C@H](Cc2ccccc2)NC1=O [RB-0006400] (cyclo(F[NMeK]([βAla-DOTA(Lu)])Y[dTrp(βS-Me)][Ala(piperidin-4-yl)]T)) | 1 to 3.33 | 
